From publication PMC11864979, “First-in-class ultralong-target-residence-time p38α inhibitors as a mitosis-targeted therapy for colorectal cancer” (Nature Cancer, 2025)
Like-named read-outs stand apart in the source and are kept apart here.

Key:
Assay in all cases: selectivity profiling in a panel of 340 wild-type kinases (Reaction Biology Europe)
Format in all cases: binding
340 wild-type kinases [1] = target: T1, 340 wild-type kinases (Homo sapiens, UniProt Q9BUB5)
T1 construct: purchased Reaction Biology Europe
T1 sequence (Q9BUB5 whole entry): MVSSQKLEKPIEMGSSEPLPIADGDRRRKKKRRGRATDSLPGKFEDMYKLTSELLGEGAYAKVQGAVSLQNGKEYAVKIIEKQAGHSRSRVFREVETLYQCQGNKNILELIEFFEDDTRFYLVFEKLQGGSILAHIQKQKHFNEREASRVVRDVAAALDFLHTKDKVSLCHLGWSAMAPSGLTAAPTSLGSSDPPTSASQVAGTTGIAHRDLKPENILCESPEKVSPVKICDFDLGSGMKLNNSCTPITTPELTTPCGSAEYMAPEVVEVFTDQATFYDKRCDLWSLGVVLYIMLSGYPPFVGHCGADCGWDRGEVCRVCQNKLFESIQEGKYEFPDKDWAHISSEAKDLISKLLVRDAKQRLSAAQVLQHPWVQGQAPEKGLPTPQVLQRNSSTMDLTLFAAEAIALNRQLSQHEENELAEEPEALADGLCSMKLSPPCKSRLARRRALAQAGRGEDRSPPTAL

340 wild-type kinases [2] = target: T2, 340 wild-type kinases (Homo sapiens, UniProt Q8IW41)
T2 construct: purchased Reaction Biology Europe
T2 sequence (Q8IW41 1-473): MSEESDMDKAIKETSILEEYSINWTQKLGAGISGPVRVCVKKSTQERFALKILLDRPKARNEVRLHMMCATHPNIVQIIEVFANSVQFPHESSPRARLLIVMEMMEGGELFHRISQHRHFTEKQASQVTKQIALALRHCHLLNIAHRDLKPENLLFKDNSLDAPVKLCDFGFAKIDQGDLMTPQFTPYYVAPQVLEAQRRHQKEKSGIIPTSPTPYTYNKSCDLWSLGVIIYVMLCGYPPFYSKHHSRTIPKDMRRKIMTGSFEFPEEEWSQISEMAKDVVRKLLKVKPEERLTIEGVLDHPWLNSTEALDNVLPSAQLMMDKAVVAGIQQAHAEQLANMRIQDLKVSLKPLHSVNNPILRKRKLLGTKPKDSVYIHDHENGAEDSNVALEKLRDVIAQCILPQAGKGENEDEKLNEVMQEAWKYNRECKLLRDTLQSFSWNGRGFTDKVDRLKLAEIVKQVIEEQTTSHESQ

340 wild-type kinases [3] = target: T3, 340 wild-type kinases (Homo sapiens, UniProt Q9Y2U5)
T3 construct: purchased Reaction Biology Europe
T3 sequence (Q9Y2U5 1-619): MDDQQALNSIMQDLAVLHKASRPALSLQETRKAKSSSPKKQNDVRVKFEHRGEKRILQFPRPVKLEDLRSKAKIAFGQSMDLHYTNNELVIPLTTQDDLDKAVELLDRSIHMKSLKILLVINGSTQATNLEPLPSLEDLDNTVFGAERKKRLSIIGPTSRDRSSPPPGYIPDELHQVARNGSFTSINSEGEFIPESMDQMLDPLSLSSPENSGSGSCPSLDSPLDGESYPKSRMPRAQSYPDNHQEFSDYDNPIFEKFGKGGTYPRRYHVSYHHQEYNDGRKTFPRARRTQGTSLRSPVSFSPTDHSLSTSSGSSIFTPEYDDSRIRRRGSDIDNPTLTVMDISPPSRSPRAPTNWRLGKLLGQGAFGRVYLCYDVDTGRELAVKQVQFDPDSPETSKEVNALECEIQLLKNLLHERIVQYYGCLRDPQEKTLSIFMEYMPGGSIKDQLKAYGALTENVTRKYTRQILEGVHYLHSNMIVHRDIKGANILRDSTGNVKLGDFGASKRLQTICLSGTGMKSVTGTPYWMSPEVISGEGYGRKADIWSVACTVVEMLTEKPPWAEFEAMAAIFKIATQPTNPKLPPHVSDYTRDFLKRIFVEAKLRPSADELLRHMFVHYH

340 wild-type kinases [4] = target: T4, 340 wild-type kinases (Homo sapiens, UniProt Q8N5S9)
T4 construct: purchased Reaction Biology Europe
T4 sequence (Q8N5S9 whole entry): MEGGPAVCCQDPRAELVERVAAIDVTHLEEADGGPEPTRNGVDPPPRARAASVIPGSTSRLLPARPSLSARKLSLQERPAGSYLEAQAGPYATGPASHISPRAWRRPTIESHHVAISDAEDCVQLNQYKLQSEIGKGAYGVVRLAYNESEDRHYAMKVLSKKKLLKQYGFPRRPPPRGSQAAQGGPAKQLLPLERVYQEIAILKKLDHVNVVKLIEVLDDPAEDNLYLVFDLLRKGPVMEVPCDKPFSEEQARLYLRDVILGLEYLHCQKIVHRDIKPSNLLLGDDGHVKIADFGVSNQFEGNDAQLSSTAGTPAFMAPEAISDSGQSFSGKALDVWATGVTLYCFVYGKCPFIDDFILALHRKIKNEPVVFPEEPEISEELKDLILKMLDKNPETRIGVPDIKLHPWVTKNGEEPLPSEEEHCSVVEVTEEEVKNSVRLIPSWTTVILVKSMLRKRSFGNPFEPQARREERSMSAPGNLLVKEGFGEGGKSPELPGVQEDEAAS

340 wild-type kinases [5] = target: T5, 340 wild-type kinases (Homo sapiens, UniProt P54753)
T5 construct: purchased Reaction Biology Europe
T5 sequence (P54753 34-998): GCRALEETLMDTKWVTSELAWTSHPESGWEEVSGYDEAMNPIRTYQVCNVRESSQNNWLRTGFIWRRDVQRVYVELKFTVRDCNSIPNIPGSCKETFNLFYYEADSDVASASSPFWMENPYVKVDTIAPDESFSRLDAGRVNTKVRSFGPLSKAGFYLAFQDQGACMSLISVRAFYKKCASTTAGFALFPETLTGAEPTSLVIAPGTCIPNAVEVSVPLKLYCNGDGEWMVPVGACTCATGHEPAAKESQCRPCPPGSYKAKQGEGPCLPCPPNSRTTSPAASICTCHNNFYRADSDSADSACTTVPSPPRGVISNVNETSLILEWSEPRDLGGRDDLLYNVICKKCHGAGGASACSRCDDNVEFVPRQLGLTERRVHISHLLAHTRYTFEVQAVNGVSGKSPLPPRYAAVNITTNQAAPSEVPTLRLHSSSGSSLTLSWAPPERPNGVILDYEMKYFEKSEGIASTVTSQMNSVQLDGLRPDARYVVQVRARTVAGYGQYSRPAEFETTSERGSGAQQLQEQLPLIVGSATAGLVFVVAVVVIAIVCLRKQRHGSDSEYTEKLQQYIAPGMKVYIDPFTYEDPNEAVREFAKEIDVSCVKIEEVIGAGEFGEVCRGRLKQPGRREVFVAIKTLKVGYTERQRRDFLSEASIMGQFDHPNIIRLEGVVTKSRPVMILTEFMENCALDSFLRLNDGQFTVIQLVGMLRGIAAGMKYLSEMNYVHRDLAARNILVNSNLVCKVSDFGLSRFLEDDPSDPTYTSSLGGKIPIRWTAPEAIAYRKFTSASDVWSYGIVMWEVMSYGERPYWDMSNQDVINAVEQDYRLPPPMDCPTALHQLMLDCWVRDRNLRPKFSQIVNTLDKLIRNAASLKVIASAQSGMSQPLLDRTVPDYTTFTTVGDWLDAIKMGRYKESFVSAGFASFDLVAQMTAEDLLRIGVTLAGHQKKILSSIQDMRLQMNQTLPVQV

340 wild-type kinases [6] = target: T6, 340 wild-type kinases (Homo sapiens, UniProt P53350)
T6 construct: purchased Reaction Biology Europe
T6 sequence (P53350 whole entry): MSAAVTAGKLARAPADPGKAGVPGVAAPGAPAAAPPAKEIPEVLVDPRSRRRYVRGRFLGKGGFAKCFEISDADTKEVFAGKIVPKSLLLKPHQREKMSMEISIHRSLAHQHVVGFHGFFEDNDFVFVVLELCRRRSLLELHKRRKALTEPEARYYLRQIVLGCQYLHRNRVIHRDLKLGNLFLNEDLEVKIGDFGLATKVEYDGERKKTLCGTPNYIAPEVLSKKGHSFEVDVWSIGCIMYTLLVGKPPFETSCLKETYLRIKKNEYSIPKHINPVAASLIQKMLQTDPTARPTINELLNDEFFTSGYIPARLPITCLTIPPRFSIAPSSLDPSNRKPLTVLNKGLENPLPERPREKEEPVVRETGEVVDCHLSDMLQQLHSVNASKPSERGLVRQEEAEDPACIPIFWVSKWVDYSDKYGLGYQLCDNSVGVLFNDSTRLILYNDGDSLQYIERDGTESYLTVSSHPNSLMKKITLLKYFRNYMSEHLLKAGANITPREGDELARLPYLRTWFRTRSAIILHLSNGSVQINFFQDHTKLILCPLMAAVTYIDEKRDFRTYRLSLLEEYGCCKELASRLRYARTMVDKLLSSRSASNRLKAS

340 wild-type kinases [7] = target: T7, 340 wild-type kinases (Homo sapiens, UniProt Q05513); conditions: PKMzeta, read-out: residual activity
T7 construct: purchased Reaction Biology Europe
T7 sequence (Q05513 184-592): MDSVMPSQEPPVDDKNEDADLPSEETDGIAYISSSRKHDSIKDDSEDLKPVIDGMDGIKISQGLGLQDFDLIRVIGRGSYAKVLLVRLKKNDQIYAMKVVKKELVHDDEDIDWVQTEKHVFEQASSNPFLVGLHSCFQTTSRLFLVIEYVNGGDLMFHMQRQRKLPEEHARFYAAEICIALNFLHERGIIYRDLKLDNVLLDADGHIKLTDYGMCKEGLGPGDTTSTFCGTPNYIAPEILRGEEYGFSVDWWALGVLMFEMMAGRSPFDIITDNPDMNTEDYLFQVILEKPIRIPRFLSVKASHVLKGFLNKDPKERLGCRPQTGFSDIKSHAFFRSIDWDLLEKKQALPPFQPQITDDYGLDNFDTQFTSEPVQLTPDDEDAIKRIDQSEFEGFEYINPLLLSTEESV

Compound: CNC(=O)c1ccc2c(c1)C(=O)c1ccc(Nc3ccc(F)c(NC(=O)C4CC4)c3)cc1CC2 [Compound 2015]
- remaining activity at 0.2 µM (340 wild-type kinases [1]; 0.2 µM 2015, read-out: MKNK1 residual activity): 98.2%
- remaining activity at 1 µM (340 wild-type kinases [1]; 1 µM 2015, read-out: MKNK1 residual activity): 91.6%
- remaining activity at 0.2 µM (340 wild-type kinases [1]; MKNK1, 0.2 µM, read-out: residual activity): 98.2%
- remaining activity at 1 µM (340 wild-type kinases [1]; MKNK1, 1 µM, read-out: residual activity): 91.6%
- remaining activity at 0.2 µM (340 wild-type kinases [2]; 0.2 µM 2015, read-out: MAPKAPK5 residual activity): 123%
- remaining activity at 1 µM (340 wild-type kinases [2]; 1 µM 2015, read-out: MAPKAPK5 residual activity): 109%
- remaining activity at 0.2 µM (340 wild-type kinases [2]; MAPKAPK5, 0.2 µM, read-out: residual activity): 123%
- remaining activity at 1 µM (340 wild-type kinases [2]; MAPKAPK5, 1 µM, read-out: residual activity): 109%
- remaining activity at 0.2 µM (340 wild-type kinases [3]; 0.2 µM 2015, read-out: MEKK2 residual activity): 96.7%
- remaining activity at 1 µM (340 wild-type kinases [3]; 1 µM 2015, read-out: MEKK2 residual activity): 95.1%
- remaining activity at 0.2 µM (340 wild-type kinases [3]; MEKK2, 0.2 µM, read-out: residual activity): 96.7%
- remaining activity at 1 µM (340 wild-type kinases [3]; MEKK2, 1 µM, read-out: residual activity): 95.1%
- remaining activity at 0.2 µM (340 wild-type kinases [4]; 0.2 µM 2015, read-out: CAMKK1 residual activity): 123%
- remaining activity at 1 µM (340 wild-type kinases [4]; 1 µM 2015, read-out: CAMKK1 residual activity): 106%
- remaining activity at 0.2 µM (340 wild-type kinases [4]; CAMKK1, 0.2 µM, read-out: residual activity): 123%
- remaining activity at 1 µM (340 wild-type kinases [4]; CAMKK1, 1 µM, read-out: residual activity): 106%
- remaining activity at 0.2 µM (340 wild-type kinases [5]; 0.2 µM 2015, read-out: EPHB3 residual activity): 97.2%
- remaining activity at 1 µM (340 wild-type kinases [5]; 1 µM 2015, read-out: EPHB3 residual activity): 96.8%
- remaining activity at 0.2 µM (340 wild-type kinases [5]; EPHB3, 0.2 µM, read-out: residual activity): 97.2%
- remaining activity at 1 µM (340 wild-type kinases [5]; EPHB3, 1 µM, read-out: residual activity): 96.8%
- remaining activity at 0.2 µM (340 wild-type kinases [6]; 0.2 µM 2015, read-out: PLK1 residual activity): 94.2%
- remaining activity at 1 µM (340 wild-type kinases [6]; 1 µM 2015, read-out: PLK1 residual activity): 96.3%
- remaining activity at 0.2 µM (340 wild-type kinases [6]; PLK1, 0.2 µM, read-out: residual activity): 94.2%
- remaining activity at 1 µM (340 wild-type kinases [6]; PLK1, 1 µM, read-out: residual activity): 96.3%
- remaining activity at 0.2 µM (340 wild-type kinases [7]; 0.2 µM): 106%
- remaining activity at 1 µM (340 wild-type kinases [7]; 1 µM): 102%
